Laboratory results from ChEMBL document CHEMBL1148240, “3-hydroxy-quinazoline-2,4-dione as a useful scaffold to obtain selective Gly/NMDA and AMPA receptor antagonists” (Bioorg Med Chem Lett, 2004).
pIC50, pKi: −log10 of the molar value.

Columns and labels:
[1] = target: Glutamate receptor ionotropic, NMDA 1 (Rattus norvegicus, UniProt P35439); test: Ability of compound to displace [3H]glycine from N-methyl-D-aspartate glutamate receptor 1 from in cerebral cortex synaptic membranes; assay type: cell membranes
[2] = target: Glutamate receptor ionotropic, kainate; test: Ability of compound to displace [3H]- kainate from ionotropic glutamate receptor kainate in rat cortical membranes; assay type: cell membranes, Membrane
[3] = target: T1, Glutamate receptor ionotropic, AMPA (Rattus norvegicus, UniProt P19490+P19491+P19492+P19493); test: Ability of compound to displace [3H]AMPA from Ionotropic glutamate receptor AMPA in rat cerebral cortex synaptic membranes; assay type: cell membranes, Membrane
[4] = Ability of compound to inhibit the binding of the channel blocking agent [3H](+)-MK-801 in rat cortical membranes; assay type: cell membranes, Membrane
Glutamate NMDA receptor [5] = test: Inhibitory concentration of compound for depolarization induced by 5 uM NMDA in mouse cortical wedge preparation; assay type: protein-complex assay
[6] = target: T1, Glutamate receptor ionotropic, AMPA
Description: Inhibitory concentration of compound for depolarization induced by 5 uM S-AMPA in mouse cortical wedge preparation

Glutamate NMDA receptor [7] = target: Glutamate NMDA receptor
Rattus norvegicus = species: Rattus norvegicus; test: Ability of compound to inhibit the binding of the channel blocking agent [3H](+)-MK-801 in rat cortical membranes at 100 uM concentration; assay type: cell membranes; settings: Membrane

Row | Structure (SMILES) | pKi [1] | pIC50 [2] | pKi [3] | pIC50 [4] | pIC50 (Glutamate NMDA receptor [5]) | pIC50 [6] | pKi (Glutamate NMDA receptor [7]) | inhibition (Rattus norvegicus)
1 | O=c1[nH]c2cc(Cl)c([N+](=O)[O-])cc2c(=O)n1O | 5.96 | 4.72 | 5.89 | 5.77 | 4.44 | 4.54 |  | 
2 | O=C(O)c1cc(O)c2c(Cl)cc(Cl)cc2n1 |  |  |  |  |  |  | 5.33 | 
3 | O=c1[nH]c2cc(Cl)c(-n3cnnc3)cc2c(=O)n1O | < 4.00 | 5.15 | 6.60 |  | 4.08 | 5.34 |  | 29%
4 | O=c1[nH]c2cc(Cl)cc(Cl)c2c(=O)n1-c1ccccc1 | 4.64 |  |  |  |  |  |  | 

Further lines, with some results ahead:

Row | pKi [1] | pIC50 [2] | pKi [3] | pIC50 [4] | pIC50 (Glutamate NMDA receptor [5]) | pIC50 [6] | pKi (Glutamate NMDA receptor [7]) | Structure (SMILES) | inhibition (Rattus norvegicus)
5 | 4.97 | 4.15 | 5.01 | 4.05 |  |  |  | Nc1cc2c(=O)n(O)c(=O)[nH]c2cc1Cl | 
6 | 6.62 | 3.85 | 4.94 | 5.32 |  |  |  | O=c1[nH]c2cc(Cl)ccc2c(=O)n1O | 
7 | 6.52 | 4.17 | 4.90 | 6.37 |  |  |  | O=c1[nH]c2cc(Cl)c(Cl)cc2c(=O)n1O | 
8 | 6.70 | 4.28 | 5.01 | 6.12 | 4.38 | 4.48 |  | O=c1[nH]c2cc(Cl)cc(Cl)c2c(=O)n1O | 
